Test results published in PubChem BioAssay AID256 (DTP/NCI, 2004).
“And” between values parts separate entries of the source, which are not always exact repeats. Equal values may be shown once. Toxic doses and inconclusive results are not listed. How the source made its calls: active means survival T/C of 150% or more; inactive means T/C below 125% in these data.

Tested on: CD2F1 mice, L1210 leukemia ip, survival T/C
Assay: NCI In Vivo Anticancer Drug Screen. Data for tumor model L1210 Leukemia (intraperitoneal) in CD2F1 (CDF1) mice
Settings: endpoint: mean survival time, higher = longer survival
Outline: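 Tumor-bearing mice (transplanted tumor) were split into treated and vehicle control groups, and the measured endpoint of each treated group was divided by that of its vehicle controls.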

[1] = dose: 100.0 mg/kg/injection, schedule: Q01DX001 (ip), vehicle: saline with Tween-80
[2] = dose: 200.0 mg/kg/injection, schedule: Q01DX001 (ip), vehicle: saline with Tween-80
[3] = dose: 400.0 mg/kg/injection, schedule: Q01DX001 (ip), vehicle: saline with Tween-80
[4] = dose: 25.0 mg/kg/injection, schedule: Q04DX003 (ip), vehicle: saline with Tween-80
[5] = dose: 50.0 mg/kg/injection, schedule: Q04DX003 (ip), vehicle: saline with Tween-80
[6] = dose: 100.0 mg/kg/injection, schedule: Q04DX003 (ip), vehicle: saline with Tween-80
[7] = dose: 200.0 mg/kg/injection, schedule: Q04DX003 (ip), vehicle: saline with Tween-80
[8] = dose: 25.0 mg/kg/injection, schedule: Q01DX009 (ip), vehicle: saline with Tween-80
[9] = dose: 50.0 mg/kg/injection, schedule: Q01DX009 (ip), vehicle: saline with Tween-80
[10] = dose: 100.0 mg/kg/injection, schedule: Q01DX009 (ip), vehicle: saline with Tween-80
[11] = dose: 200.0 mg/kg/injection, schedule: Q01DX009 (ip), vehicle: saline with Tween-80
[12] = dose: 400.0 mg/kg/injection, schedule: Q01DX009 (ip), vehicle: saline with Tween-80

Measured: T/C

CCCCCCCCCCCCCCCCCCCOc1ccc(OCCCCCCCCCC)cc1
inactive: [1] 95 % of control | [2] 86 % of control | [3] 86 % of control

CC(C)C1OCC(C)(C)C(C(C)C)O1 (configuration not stated)
inactive: dose: 100.0 mg/kg/injection, schedule: Q04DX002 (ip), vehicle: saline 107 % of control | dose: 200.0 mg/kg/injection, schedule: Q04DX002 (ip), vehicle: saline 110 % of control | dose: 400.0 mg/kg/injection, schedule: Q04DX002 (ip), vehicle: saline 96 % of control

O=C(COc1ccc(Cl)c(Cl)c1)Nc1ccc[n+](Cc2ccccc2)c1
inactive: dose: 12.5 mg/kg/injection, schedule: Q04DX003 (ip), vehicle: saline with Tween-80 104 % of control | [4] 98 % of control | [5] 89 % of control

CC(=O)OCC(C)CCC(C)C(C)C1C(C)CC2C3CC=C4CC(OC(C)=O)CCC4(C)C3CCC21C (configuration not stated)
inactive: dose: 12.5 mg/kg/injection, schedule: Q01DX009 (ip), vehicle: Klucel (hydroxypropylcellulose) (HPC) 104 % of control | dose: 25.0 mg/kg/injection, schedule: Q01DX009 (ip), vehicle: Klucel (hydroxypropylcellulose) (HPC) 101 % of control | dose: 50.0 mg/kg/injection, schedule: Q01DX009 (ip), vehicle: Klucel (hydroxypropylcellulose) (HPC) 101 % of control

Nc1nnnc2c1ncn2C1OC(CO)C(O)C1O (configuration not stated)
inactive: dose: 300.0 mg/kg/injection, schedule: Q01DX001 (ip), vehicle: saline 121 % of control

CCN(CC)CC(=O)Nc1cccc2c1C(=O)c1c(c(O)c3ccccc3c1O)C2=O
inactive: dose: 6.0 mg/kg/injection, schedule: Q04DX003 (ip), vehicle: saline with Tween-80 94 % of control | dose: 12.0 mg/kg/injection, schedule: Q04DX003 (ip), vehicle: saline with Tween-80 100 % of control | dose: 24.0 mg/kg/injection, schedule: Q04DX003 (ip), vehicle: saline with Tween-80 96 % of control | dose: 48.0 mg/kg/injection, schedule: Q04DX003 (ip), vehicle: saline with Tween-80 98 % of control

CCCCS(=O)C(Cl)CCC (configuration not stated)
inactive: [6] 97 % of control | [7] 100 % of control

COCS(=O)[O-].[C-]#[O+].[C-]#[O+].[Fe+6].[c-]1[c-][c-][cH-][c-]1
inactive: dose: 12.5 mg/kg/injection, schedule: Q04DX002 (ip), vehicle: saline 101 % of control | dose: 25.0 mg/kg/injection, schedule: Q04DX002 (ip), vehicle: saline 93 % of control | dose: 50.0 mg/kg/injection, schedule: Q04DX002 (ip), vehicle: saline 96 % of control

COc1ccc(OC)c(C=C(C(C)=O)C(C)=O)c1
inactive: dose: 12.5 mg/kg/injection, schedule: Q01DX009 (ip), vehicle: water 95 % of control | dose: 25.0 mg/kg/injection, schedule: Q01DX009 (ip), vehicle: water 102 % of control | dose: 50.0 mg/kg/injection, schedule: Q01DX009 (ip), vehicle: water 100 % of control | dose: 100.0 mg/kg/injection, schedule: Q01DX009 (ip), vehicle: water 95 % of control | dose: 200.0 mg/kg/injection, schedule: Q01DX009 (ip), vehicle: water 88 % of control

NP(=O)(OC(c1ccccc1)C12CC3CC(CC(C3)C1)C2)N(CCCl)CCCl (configuration not stated)
inactive: dose: 62.5 mg/kg/injection, schedule: Q01DX001 (ip), vehicle: other 92 % of control | dose: 125.0 mg/kg/injection, schedule: Q01DX001 (ip), vehicle: other 97 % of control | dose: 250.0 mg/kg/injection, schedule: Q01DX001 (ip), vehicle: other 102 % of control | dose: 500.0 mg/kg/injection, schedule: Q01DX001 (ip), vehicle: other 105 % of control

COC1OC2COC(c3ccccc3)OC2C(OS(C)(=O)=O)C1OS(C)(=O)=O (configuration not stated)
inactive: [1] 103 % of control | [2] 105 % of control | [3] 101 % of control

Cc1c(N)nc(C(CC(N)=O)NCC(N)C(N)=O)nc1C(=O)NC(C(=O)NC(C)C(O)CC(=O)NC(C(=O)NC(OC1OC(C)C(N)C(O)C1O)C(O)c1nc(-c2nc(C(=O)NCCCC(N)CC(=O)NCCCNCCCCN)cs2)cs1)C(C)O)C(OC1OC(CO)C(O)C(O)C1OC1OC(CO)C(O)C(OC(N)=O)C1O)c1cnc[nH]1 (configuration not stated)
inactive: dose: 1.0 mg/kg/injection, schedule: Q01DX009 (ip), vehicle: saline 103 % of control | dose: 2.0 mg/kg/injection, schedule: Q01DX009 (ip), vehicle: saline 101 % of control | dose: 4.0 mg/kg/injection, schedule: Q01DX009 (ip), vehicle: saline 104 % of control | dose: 8.0 mg/kg/injection, schedule: Q01DX009 (ip), vehicle: saline 104 % of control | dose: 16.0 mg/kg/injection, schedule: Q01DX009 (ip), vehicle: saline 86 % of control

Cc1[nH]c2ccccc2c1C(c1cc(Cl)cc(Cl)c1O)c1c(C)[nH]c2ccccc12
inactive: [8] 88 % of control | [9] 86 % of control | [10] 86 % of control | [11] 86 % of control

O=C(COc1ccc(S[N+](=O)[O-])cc1)c1ccccc1
inactive: dose: 100.0 mg/kg/injection, schedule: Q01DX001 (ip), vehicle: saline 105 % of control | dose: 200.0 mg/kg/injection, schedule: Q01DX001 (ip), vehicle: saline 103 % of control | dose: 400.0 mg/kg/injection, schedule: Q01DX001 (ip), vehicle: saline 94 % of control

COc1ccccc1-n1c(O)c(N=Nc2ccccc2)c(=O)n(-c2ccccc2OC)c1=S
inactive: [1] 105 % of control | [2] 102 % of control

CS(=O)(=O)OC1CCCCC1c1ccccc1 (configuration not stated)
inactive: dose: 100.0 mg/kg/injection, schedule: Q01DX001 (ip), vehicle: carboxymethylcellulose (CMC) 103 % of control | dose: 200.0 mg/kg/injection, schedule: Q01DX001 (ip), vehicle: carboxymethylcellulose (CMC) 103 % of control | dose: 400.0 mg/kg/injection, schedule: Q01DX001 (ip), vehicle: carboxymethylcellulose (CMC) 101 % of control

O=C1CCCCC1(c1ccccc1)c1ccccc1
inactive: [10] 101 % of control | [6] 101 % of control | [11] 97 % of control | [7] 99 % of control | [12] 98 % of control | dose: 400.0 mg/kg/injection, schedule: Q04DX003 (ip), vehicle: saline with Tween-80 97 % of control

CS(=O)(=O)N1CCCCC1
inactive: dose: 75.0 mg/kg/injection, schedule: Q01DX001 (ip), vehicle: saline 100 % of control

CC(=O)Nc1ccc(S(=O)(=O)CO)cc1
inactive: dose: 12.5 mg/kg/injection, schedule: Q01DX009 (ip), vehicle: saline with Tween-80 97 % of control | [8] 92 % of control and 97 % of control | [9] 102 % of control and 108 % of control | [10] 101 % of control and 108 % of control | [11] 101 % of control and 103 % of control | [12] 101 % of control and 109 % of control

CC(=O)C(C(C)=O)C1C=CCC1 (configuration not stated)
inactive: [10] 107 % of control | [11] 104 % of control | [12] 101 % of control

Cc1ccc2nc(-c3ccc(Cl)cc3Cl)oc(=O)c2c1
inactive: dose: 100.0 mg/kg/injection, schedule: Q04DX002 (ip), vehicle: saline with Tween-80 100 % of control | dose: 200.0 mg/kg/injection, schedule: Q04DX002 (ip), vehicle: saline with Tween-80 114 % of control | dose: 400.0 mg/kg/injection, schedule: Q04DX002 (ip), vehicle: saline with Tween-80 107 % of control

CCCCNC(C)(C)C(SS)c1cccs1 (configuration not stated)
inactive: dose: 66.0 mg/kg/injection, schedule: Q01DX009 (ip), vehicle: other 101 % of control | dose: 150.0 mg/kg/injection, schedule: Q01DX009 (ip), vehicle: other 108 % of control | dose: 200.0 mg/kg/injection, schedule: Q01DX009 (ip), vehicle: other 94 % of control | dose: 400.0 mg/kg/injection, schedule: Q01DX009 (ip), vehicle: other 92 % of control

O=C1C(=O)C(c2ccccc2)(c2ccccc2)c2cc(-c3ccccc3)c(-c3ccccc3)cc21
inactive: [4] 93 % of control | [5] 89 % of control | [6] 93 % of control
